Laboratory results taken from ChEMBL document CHEMBL2074127, “P-glycoprotein in the blood-brain barrier of mice influences the brain penetration and pharmacological activity of many drugs” (J Clin Invest, 1996).

Tests used:
[1] = molecular target: T1, ATP-dependent translocase ABCB1 (Mus musculus, UniProt P21447); assay: TP_TRANSPORTER: increase in brain concentration in mdr1a(-/-) mouse; type: functional, organism-based; settings: in vivo
[2] = molecular target: ATP-dependent translocase ABCB1 (Homo sapiens, UniProt P08183); assay: TP_TRANSPORTER: transepithelial transport (basal to apical) in MDR1-expressing LLC-PK1 cells; type: functional, cell-based; settings: pig
Chain of ATP-dependent translocase ABCB1 (Homo sapiens, UniProt P08183) (P08183 whole entry): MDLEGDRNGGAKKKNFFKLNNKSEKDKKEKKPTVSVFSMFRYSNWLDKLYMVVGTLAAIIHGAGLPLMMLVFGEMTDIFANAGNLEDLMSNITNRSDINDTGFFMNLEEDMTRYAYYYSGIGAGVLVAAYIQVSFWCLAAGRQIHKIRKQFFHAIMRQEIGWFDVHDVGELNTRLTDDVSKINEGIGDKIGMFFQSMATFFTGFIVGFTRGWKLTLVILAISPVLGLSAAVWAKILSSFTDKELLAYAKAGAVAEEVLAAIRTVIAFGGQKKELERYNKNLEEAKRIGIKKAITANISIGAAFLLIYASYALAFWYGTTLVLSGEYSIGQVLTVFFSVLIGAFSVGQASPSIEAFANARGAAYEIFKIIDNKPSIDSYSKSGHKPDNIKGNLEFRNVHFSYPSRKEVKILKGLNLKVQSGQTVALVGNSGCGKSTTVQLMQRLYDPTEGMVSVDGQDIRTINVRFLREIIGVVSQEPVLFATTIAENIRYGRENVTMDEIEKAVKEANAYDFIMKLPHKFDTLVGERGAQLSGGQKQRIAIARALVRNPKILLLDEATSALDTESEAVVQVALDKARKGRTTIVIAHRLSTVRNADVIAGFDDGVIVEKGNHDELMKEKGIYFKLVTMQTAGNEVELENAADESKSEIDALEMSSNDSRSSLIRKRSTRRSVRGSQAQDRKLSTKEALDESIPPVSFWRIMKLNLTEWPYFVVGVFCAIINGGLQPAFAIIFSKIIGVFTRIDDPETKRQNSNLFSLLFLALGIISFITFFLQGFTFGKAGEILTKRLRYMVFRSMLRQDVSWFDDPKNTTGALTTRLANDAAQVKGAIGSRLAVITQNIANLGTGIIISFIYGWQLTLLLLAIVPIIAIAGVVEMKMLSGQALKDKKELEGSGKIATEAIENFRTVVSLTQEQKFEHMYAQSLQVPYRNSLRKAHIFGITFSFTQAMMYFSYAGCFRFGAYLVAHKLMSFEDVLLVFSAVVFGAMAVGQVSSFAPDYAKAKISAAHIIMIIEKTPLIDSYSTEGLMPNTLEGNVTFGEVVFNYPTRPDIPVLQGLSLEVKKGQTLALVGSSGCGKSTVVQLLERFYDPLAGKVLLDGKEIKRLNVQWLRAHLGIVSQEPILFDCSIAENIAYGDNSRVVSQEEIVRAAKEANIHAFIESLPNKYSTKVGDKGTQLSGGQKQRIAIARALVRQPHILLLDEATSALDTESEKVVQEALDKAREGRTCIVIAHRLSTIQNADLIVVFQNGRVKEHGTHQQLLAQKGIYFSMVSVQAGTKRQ

[3] = molecular target: T1, ATP-dependent translocase ABCB1; assay: TP_TRANSPORTER: transepithelial transport (basal to apical) in mdr1a-expressing LLC-PK1 cell; type: functional, cell-based; settings: pig

T1 sequence (P21447 whole entry): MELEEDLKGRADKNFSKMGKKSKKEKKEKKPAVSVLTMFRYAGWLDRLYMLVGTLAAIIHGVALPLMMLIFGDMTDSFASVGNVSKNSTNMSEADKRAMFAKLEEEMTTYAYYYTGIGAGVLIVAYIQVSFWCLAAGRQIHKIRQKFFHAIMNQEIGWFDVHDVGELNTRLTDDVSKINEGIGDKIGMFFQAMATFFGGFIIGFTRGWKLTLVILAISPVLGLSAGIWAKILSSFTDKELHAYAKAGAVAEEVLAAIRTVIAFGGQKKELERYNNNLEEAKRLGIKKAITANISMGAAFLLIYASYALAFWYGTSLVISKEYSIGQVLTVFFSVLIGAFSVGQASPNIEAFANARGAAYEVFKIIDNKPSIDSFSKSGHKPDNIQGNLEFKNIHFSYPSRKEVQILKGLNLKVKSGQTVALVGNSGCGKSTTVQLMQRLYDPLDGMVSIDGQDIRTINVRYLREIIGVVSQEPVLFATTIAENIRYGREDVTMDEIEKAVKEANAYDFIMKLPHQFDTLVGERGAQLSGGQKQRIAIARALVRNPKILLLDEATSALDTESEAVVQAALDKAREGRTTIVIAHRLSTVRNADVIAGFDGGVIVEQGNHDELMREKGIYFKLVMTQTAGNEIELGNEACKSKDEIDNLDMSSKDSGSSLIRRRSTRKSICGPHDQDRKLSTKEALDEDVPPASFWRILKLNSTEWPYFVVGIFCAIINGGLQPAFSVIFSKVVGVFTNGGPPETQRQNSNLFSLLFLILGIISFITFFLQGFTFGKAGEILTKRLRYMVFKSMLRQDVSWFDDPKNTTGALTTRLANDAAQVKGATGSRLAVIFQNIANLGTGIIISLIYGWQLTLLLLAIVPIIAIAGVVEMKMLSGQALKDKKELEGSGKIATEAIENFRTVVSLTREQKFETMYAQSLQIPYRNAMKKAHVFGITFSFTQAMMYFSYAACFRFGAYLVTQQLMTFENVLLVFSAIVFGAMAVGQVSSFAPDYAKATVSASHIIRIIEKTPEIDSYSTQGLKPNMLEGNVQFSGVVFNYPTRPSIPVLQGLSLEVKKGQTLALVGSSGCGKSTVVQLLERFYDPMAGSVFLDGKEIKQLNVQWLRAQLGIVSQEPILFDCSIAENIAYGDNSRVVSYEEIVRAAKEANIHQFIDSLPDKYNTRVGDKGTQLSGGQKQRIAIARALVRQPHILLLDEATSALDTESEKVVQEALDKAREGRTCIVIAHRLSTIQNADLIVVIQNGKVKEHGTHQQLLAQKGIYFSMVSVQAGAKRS

SMILES	Activity [1]	Activity [2]	Activity [3]
CN(C)C(=O)C(CCN1CCC(O)(c2ccc(Cl)cc2)CC1)(c1ccccc1)c1ccccc1 [LOPERAMIDE]	substrate [+]	substrate [+]	substrate [+]
Cc1nccn1CC1CCc2c(c3ccccc3n2C)C1=O (stereo unspecified) [ONDANSETRON]	substrate [+]		substrate [+]
O=C1NC(=O)C(c2ccccc2)(c2ccccc2)N1 [PHENYTOIN]			substrate [+]
